Source: article PMC10353390, “Biological and Structural Analyses of New Potent Allosteric Inhibitors of HIV-1 Integrase” (Antimicrobial Agents and Chemotherapy, 2023)
Read-outs that look alike come from different tables or passages of the source.

Experiments:
[1] = set-up: method as in ref 22 = [22]; 22 Meng X , Donazzolo Y , Kim B , Kim K . 2022 . The first-in-human clinical trial of STP0404, a novel potent HIV-1 allosteric integrase inhibitor . Poster PESUB2624th AIDS Conference , Montreal, Cana; settings: cited from earlier work
HIV-1 IN = molecular target: T1, HIV-1 IN (Human immunodeficiency virus type 1 group M subtype B, UniProt P12497); assay: HTRF IN multimerization assay; format: biochemical; settings: mean ± SD
T1 construct: made in house
Source text: A key property of INLAIs is the ability to promote HIV-1 IN homo-multimerization ([39][–][42]). […] The maximal signal (plateau) in our IN aggregation assay corresponds to the highest HTRF signal increase under saturating INLAI concentration, relative to baseline level. Thus, MUT916, MUT884, MUT871, and MUT872 increased HIV-1 IN aggregation 3.7 to 4.4-fold, while BDM-2, BI-224436, and S-I-82 did so 5 to 6-fold (Table 1).

HXB2 HIV-1 strain = assay: Multiple-round infection assay in MT4 cells, HXB2; format: cell-based; settings: Human immunodeficiency virus 1, HXB2; multiple-round infection, MT4 cells; mean ± SD, n > 5; read-out: EC50 HXB2
Summary of the method: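 Antiviral read-out was CellTiter-Glo luminescent viability of exponentially growing MT4 cells (10^6/mL). Cells were exposed to HIV-1 for 2 h at an MOI of 0.001 while compound was present at varying concentrations.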

NL4-3 HIV-1 strain = assay: Multiple-round infection assay in MT4 cells, NL4-3; format: cell-based; settings: MT4 cells
[2] = Cytotoxicity assay in MT4 cells; format: cell-based; settings: human, MT4 cells (proliferating human T-cell line), CellTiter-Glo
Source text: Growth inhibition was monitored in a proliferating human T-cell line (MT4) with different concentrations of compounds, using the CellTiter-Glo luminescent reagent (Promega), as previously described ([12]).

[3] = test system: lab-adapted and clinical HIV-1 isolates; assay: Infection assays in primary T CD4+ lymphocytes; format: cell-based; settings: Human immunodeficiency virus 1, Lymphocyte
[4] = test system: VSV-G-pseudotyped NL4-3Δenv-luc; assay: microbe, parasite or virus in culture; format: cell-based, HIV-1; settings: Human immunodeficiency virus 1, NL43, MT4, read-out: EC50 in single-round infection
[5] = test system: recombinant NL4-3 viruses with polymorphisms at IN positions 124 and 125; assay: Multiple-round infection of MT4 cells with recombinant NL4-3 viruses polymorphic at IN positions 124 and 125; format: cell-based, HIV-1
Summary of the method: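 EC50 fold change relative to wild-type TT NL4-3 was derived from CellTiter-Glo viability of exponentially growing MT4 cells (10^6/mL). Cells were exposed for 2 h, with compounds, to NL4-3 clones bearing one of 15 IN 124/125 variants at MOI 0.001.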

[6] = test system: primary HIV-1 isolates with polymorphisms at IN positions 124 and 125; assay: Multiple-round infection of MT4 cells with primary HIV-1 isolates polymorphic at IN positions 124 and 125; format: cell-based; settings: primary isolate
Summary of the method: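 Antiviral potency read as protection of cell viability (CellTiter-Glo luminescence). Infection at MOI 0.001 lasted 2 h with compound present at a range of concentrations, using MT4 cells at 10^6/mL in exponential growth.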

[7] = test system: HIV-1 strains resistant to INSTIs, NRTIs, NNRTIs or PIs; format: cell-based; settings: PI-resistant virus
Summary of the method: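 Cell viability (CellTiter-Glo luminescence) served as read-out in MT4 cells at 10^6/mL, infected 2 h at MOI 0.001 in presence of graded compound concentrations. Viruses: resistance-mutation recombinants in NL4-3 backbone plus resistant clinical isolates.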

[8] = test system: NL4-3 HIV-1 with INLAI-selected IN single point mutations; format: cell-based
[9] = molecular target: HIV-1 IN-LEDGF/p75 interaction (Human immunodeficiency virus type 1 group M subtype B, UniProt P12497); assay: biochemical
[10] = molecular target: CCD of HIV-1 IN and IBD of LEDGF/p75 (Human immunodeficiency virus type 1 group M subtype B, UniProt P12497); assay: biochemical

Cc1nc2c(c(C)c(C)n2Cc2cnn(C)c2)c(-c2ccc(Cl)cc2)c1[C@H](OC(C)(C)C)C(=O)O [STP0404, Pirmitegravir]
tolerability in clinical phase I study [1]: Well tolerated

Cc1cc(NS(=O)(=O)CC2CCCCC2)c(C)c(C(OC(C)(C)C)C(=O)O)c1-c1ccc2c(c1)CCCO2 (centres unmarked) [S-I-82, reference compound]
AC50 (HIV-1 IN; concentration for 50% maximum activation of multimerization): 47 ± 31 nM | IN multimerization Plateau (HIV-1 IN; maximum multimerization reached versus baseline): 500 ± 43% | EC50 (HXB2 HIV-1 strain): 4.1 ± 0.7 nM | EC90 (NL4-3 HIV-1 strain; Human immunodeficiency virus 1, NL43, multiple-round infection, from dose response curves, read-out: EC90 NL4-3): 21 ± 7.2 nM | EC50 (NL4-3 HIV-1 strain; Human immunodeficiency virus 1, NL43, multiple-round infection, mean ± SD, n > 5, read-out: EC50 NL4-3): 12 ± 3 nM | Selectivity index CC50/EC50 NL4-3 (NL4-3 HIV-1 strain): 2,333 | CC50 [2]: 28000 ± 3000 nM | EC50 ([3]; read-out: EC50 33913N (B)): 4.4 ± 1.9 nM | EC50 ([3]; read-out: EC50 HXB2 (B)): 5.2 ± 3.9 nM | EC50 ([3]; read-out: EC50 KER2008 (A)): 11 ± 2 nM | EC50 ([3]; read-out: EC50 NL4-3 (B)): 9.9 ± 1.1 nM | EC50 ([3]; read-out: EC50 NP1525 (CRF01_AE)): 10 ± 4 nM | EC50 ([3]; read-out: EC50 NP1538 (B)): 8.6 ± 0.5 nM | EC50 [4]: 9200 ± 1100 nM | Fold change in EC50 relative to parental NL4-3, AA ([5]; recombinant NL4-3, IN 124/125 AA): 1 | Fold change in EC50 relative to parental NL4-3, AM ([5]; recombinant NL4-3, IN 124/125 AM): 1 | Fold change in EC50 relative to parental NL4-3, AT ([5]; recombinant NL4-3, IN 124/125 AT): 1 | Fold change in EC50 relative to parental NL4-3, AV ([5]; recombinant NL4-3, IN 124/125 AV): 2 | Fold change in EC50 relative to parental NL4-3, GA ([5]; recombinant NL4-3, IN 124/125 GA): 3 | Fold change in EC50 relative to parental NL4-3, GT ([5]; recombinant NL4-3, IN 124/125 GT): 3 | Fold change in EC50 relative to parental NL4-3, NA ([5]; recombinant NL4-3, IN 124/125 NA): 10 | Fold change in EC50 relative to parental NL4-3, NT ([5]; recombinant NL4-3, IN 124/125 NT): 5 | Fold change in EC50 relative to parental NL4-3, NV ([5]; recombinant NL4-3, IN 124/125 NV): 5 | Fold change in EC50 relative to parental NL4-3, SA ([5]; recombinant NL4-3, IN 124/125 SA): 4 | Fold change in EC50 relative to parental NL4-3, ST ([5]; recombinant NL4-3, IN 124/125 ST): 2 | Fold change in EC50 relative to parental NL4-3, TA ([5]; recombinant NL4-3, IN 124/125 TA): 2 | Fold change in EC50 relative to parental NL4-3, TM ([5]; recombinant NL4-3, IN 124/125 TM): 1 | Fold change in EC50 relative to parental NL4-3, TV ([5]; recombinant NL4-3, IN 124/125 TV): 1 | Fold change in EC50 relative to parental NL4-3, CAM2BBY (CRF02) ([6]; IN 124/125 AA): 2 | Fold change in EC50 relative to parental NL4-3, E0836M4 (D) ([6]; IN 124/125 AA): 1 | Fold change in EC50 relative to parental NL4-3, KER2008 (A) ([6]; IN 124/125 AA): 1 | Fold change in EC50 relative to parental NL4-3, NP1525 (CRF01) ([6]; IN 124/125 AA): 2 | Fold change in EC50 relative to parental NL4-3, NP1695 (CRF02) ([6]; IN 124/125 AA): 1 | Fold change in EC50 relative to parental NL4-3, TZA125 (C) ([6]; IN 124/125 AA): 1 | Fold change in EC50 relative to parental NL4-3, KSM4030 (A) ([6]; IN 124/125 GA): 6 | Fold change in EC50 relative to parental NL4-3, vGA (C) ([6]; IN 124/125 GA): 4 | Fold change in EC50 relative to parental NL4-3, 99ET14 (C) ([6]; IN 124/125 NA): 210 | Fold change in EC50 relative to parental NL4-3, NP1538 (B) ([6]; IN 124/125 NA): 1 | Fold change in EC50 relative to parental NL4-3, vNA_1 (B) ([6]; IN 124/125 NA): 23 | Fold change in EC50 relative to parental NL4-3, vNA_2 (CRF02) ([6]; IN 124/125 NA): 23 | Fold change in EC50 relative to parental NL4-3, vNV (B) ([6]; IN 124/125 NV): 34 | Fold change in EC50 relative to parental NL4-3, vSA_1 (B) ([6]; IN 124/125 SA): 12 | Fold change in EC50 relative to parental NL4-3, vSA_2 (CRF02) ([6]; IN 124/125 SA): 4 | Fold change in EC50 relative to parental NL4-3, vTA_1 (B) ([6]; IN 124/125 TA): 3 | Fold change in EC50 relative to parental NL4-3, vTA_2 (CRF02) ([6]; IN 124/125 TA): 3 | Fold change in EC50 relative to NL4-3, ARP-4595 [7]: 1 | Fold change in EC50 relative to NL4-3, ARP-4596 [7]: 0.5 | Fold change in EC50 relative to NL4-3, ARP-11801 [7]: 1 | Fold change in EC50 relative to NL4-3, ARP-11803 [7]: 1 | Fold change in EC50 relative to NL4-3, ARP-11807 [7]: 1 | Fold change in EC50 relative to NL4-3, ARP-11808 [7]: 1 | EC50 fold change compared to wild type NL4-3, A128T [8]: 4 | EC50 fold change compared to wild type NL4-3, H171Q [8]: 2 | EC50 fold change compared to wild type NL4-3, N222K [8]: 1 | EC50 fold change compared to wild type NL4-3, T174I [8]: 15 | EC50 fold change compared to wild type NL4-3, Y99H [8]: 2 | IC50 [9]: 820 ± 380 nM | IC50 [10]: 430 ± 130 nM
